Data: patent publication US5916914A, “Compounds and method of treating psychosis and schizophrenia” (priority 1997, dated 1999)
Where a name gives a salt, the structure may show the parent alone.

Assays:
[1] = molecular target: T1, human recombinant dopamine D4.2 receptor (Homo sapiens, UniProt P21917, DEL265-296); assay: Receptor binding assay, D4.2 ([^3 H]spiperone)
T1 construct: expressed in transfected cells
T1 sequence (P21917 with tags, fused parts or gaps DEL265-296): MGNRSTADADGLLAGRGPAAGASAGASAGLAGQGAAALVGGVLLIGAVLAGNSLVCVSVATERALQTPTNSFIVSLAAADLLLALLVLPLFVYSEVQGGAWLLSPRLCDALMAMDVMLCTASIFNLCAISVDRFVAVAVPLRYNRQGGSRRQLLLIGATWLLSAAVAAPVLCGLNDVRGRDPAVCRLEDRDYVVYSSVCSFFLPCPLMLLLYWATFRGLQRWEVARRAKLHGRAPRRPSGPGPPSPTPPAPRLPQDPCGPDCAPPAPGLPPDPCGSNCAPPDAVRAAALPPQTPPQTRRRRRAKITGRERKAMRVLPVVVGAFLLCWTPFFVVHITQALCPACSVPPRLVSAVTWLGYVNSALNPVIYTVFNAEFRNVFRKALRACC
Description: (§1) A cell line expressing human dopamine D2 (Long form) receptors was purchased from Oregon Health Sciences University, Portland, Oreg. The D2 receptor cDNA was subcloned into an expression vector, pRc/CMV. The plasmids were transfected by electroporation into CHO K1 cells. A single stable transfectant, resistant to the antibiotic G418, was isolated and selected for use in the binding studies. For D4 binding, CHO K1 cells stably transfected to express the human recombinant dopamine D4.2 receptor subtype, as described by Shih, et al., "The expression and functional characterization of human dopamine D4.2 receptor in CHO K1 cells," Soc. Neurosci., 1995;21 (Part 1):621 were used.
(§2) CHO K1 cells expressing either human D2 and D4.2 receptors were grown in 162 cm^2 culture flasks in F12 medium (Gibco Laboratories, Grand Island, N.Y.) supplemented with 10% fetal bovine serum (FBS, Hyclone, Logan, Utah) in an atmosphere of 5% CO2 /95% air at 37 EC. Cells were grown until confluent, after which growth medium was removed and replaced with 0.02% ethylene diamine tetracetate (EDTA) in a phosphate-buffered saline solution (Sigma Chemical Co., St. Louis, Mo.) and scraped from the flasks. The cells were centrifuged at about 1000×g for 10 minutes at 4° C. and then resuspended in TEM buffer (25 mM Tris-HCL, pH 7.4, 5 mM EDTA, and 6 mM MgCl2) for D2 or the D4.2 buffer (50 mM Tris-HCl, pH 7.4, 5 mM EDTA, 1.5 mM CaCl2, 5 mM KCl, and 120 mM NaCl) and homogenized. The membranes were pelleted by centrifugation at 20000×g at 4° C. for 20 minutes. Then the pellets were resuspended in appropriate buffer at 1 mL/flask and stored at -70° C. until used in the receptor binding assay.
(§3) After 60 minutes incubation at 25° C., the incubations were terminated by rapid filtration through Whatmann GF/B glass fibre filters (soaked for 1 hour in 0.5% polyethylenimine) on a cell harvester, with three washes of 1 mL ice-cold buffer. Individual filter disks containing the bound ligand were placed in counting vials with 4 mL of scintillation fluid (Ready Gel, Beckman Instrument, Inc., Fullerton, Calif.) and then counted in a Beckman LS-6800 liquid scintillation counter at an efficiency of 45%. Nonspecific binding was defined in presence of 1 mM of haloperidol.
(§4) Saturation and competition binding data were analyzed using an iterative nonlinear least square curve-fitting Ligand program. […] Experimental compounds were made up as stock solutions in dimethyl sulfoxide (DMSO). […] Each observation was carried out in triplicate. To allow these calculations, Kd values were measured for the interaction of various ligands with the receptor. […]

[2] = molecular target: human dopamine D2 (Long form) receptors (Homo sapiens, UniProt P14416); assay: biochemical; format: binding
Description: as §1, §2, §3, §4

human dopamine D2 (Long form) receptors, sequence (P14416 whole entry): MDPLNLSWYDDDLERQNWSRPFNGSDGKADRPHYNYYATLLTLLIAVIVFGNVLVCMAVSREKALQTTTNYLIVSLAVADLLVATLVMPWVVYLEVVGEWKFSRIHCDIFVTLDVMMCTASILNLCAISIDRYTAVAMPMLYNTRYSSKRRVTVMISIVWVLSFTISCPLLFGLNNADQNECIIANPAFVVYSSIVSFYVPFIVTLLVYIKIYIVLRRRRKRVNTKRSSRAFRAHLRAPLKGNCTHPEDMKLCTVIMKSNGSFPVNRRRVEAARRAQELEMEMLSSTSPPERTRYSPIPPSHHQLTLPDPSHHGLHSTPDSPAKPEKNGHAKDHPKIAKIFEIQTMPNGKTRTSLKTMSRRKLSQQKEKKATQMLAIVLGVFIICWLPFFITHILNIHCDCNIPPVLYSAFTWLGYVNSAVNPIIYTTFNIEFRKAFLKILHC

Row | Structure (SMILES) | Ki [1] | Ki [2]
1 | O=c1ccc2ccc(CNCCNc3ccc(CO)c(Cl)c3)cc2o1 [Example 4a, 7-{[2-(3-Chloro-4-hydroxymethyl-phenylamino)-ethylamino]-methyl}-chromen-2-one] | 95 nM | 
2 | c1ccc(OCCCNCCOc2ccc3oc4ccccc4c3c2)cc1 [Example 2d, [2-(Dibenzofuran-2-yloxy)-ethyl]-(3-phenoxypropyl)-amine hydrochloride] | 78.7 nM | 
3 | O=c1ccc2ccc(CNCCCc3ccccc3)cc2o1 [Example 4q, 7-[(3-Phenyl-propylamino)-methyl]-chromen-2-one] | 60 nM | 
4 | O=c1ccc2ccc(CNCCOc3ccccc3)cc2o1 [Example 4m, 7-[(2-Phenoxy-ethylamino)-methyl]-chromen-2-one] | 43 nM | 
5 | O=c1ccc2ccc(CNCCCOc3ccc(Cl)cc3)cc2o1 [Example 4r, 7-{[3-(4-Chloro-phenoxy)-propylamino]-methyl}-chromen-2-one] | 92 nM | 
6 | O=c1ccc2ccc(CNCCSc3ccccc3)cc2o1 [Example 4p, 7-[(2-Phenylsulfanyl-ethylamino)-methyl]-chromen-2-one hydrochloride] | 394 nM | 
7 | O=c1ccc2cc(CNCCNc3ccccc3)ccc2o1 [Example 4g, 6-[(2-Phenylamino-ethylamino)-methyl]-chromen-2-one] | 311 nM | 
8 | O=c1ccc2cc(CNCCOc3ccccc3)ccc2o1 [Example 4j, 6-[(2-Phenoxy-ethylamino)-methyl]-chromen-2-one hydrochloride] | 64 nM | 
9 | O=c1ccc2ccc(CNCCCNc3ccccc3)cc2o1 [Example 4i, 7-[(3-Phenylamino-propylamino)-methyl]-chromen-2-one] | 31 nM | 
10 | Cc1ccc(OCCCNCc2ccc3ccc(=O)oc3c2)cc1 [Example 4s, 7-[(3-p-Tolyloxy-propylamino)-methyl]-chromen-2-one] | 234 nM | 
11 | O=c1ccc2ccc(CNCCNc3cccc(Cl)c3)cc2o1 [Example 4d, 7-{[2-(3-Chloro-phenylamino)-ethylamino]-methyl}-chromen-2-one dihydrochloride] | 42 nM | 
12 | Cc1cc(=O)oc2ccc(OCCNCCCOc3ccccc3)cc12 [Example 3a, 4-Methyl-6-[2-(3-phenoxy-propylamino)-ethoxy]-chromen-2-one hydrochloride] | 70.2 nM | 

Stronger by Ki [1], values ahead:

Row | Ki [1] | Ki [2] | Structure (SMILES)
13 | 1.2 nM | 502 nM | c1ccc(OCCCNCCOc2ccc3occc3c2)cc1 [Example 3b, [2-(Benzofuran-5-yloxy)-ethyl]-(3-phenoxy-propyl)-amine hydrochloride]
14 | 1.9 nM | 231 nM | Cc1cc(=O)oc2cc(OCCNCCCOc3ccccc3)ccc12 [Example 3, 4-Methyl-7-[2-(3-phenoxy-propylamino)-ethoxy]-chromen-2-one Hydrochloride]
15 | 12.8 nM | 578 nM | c1ccc(OCCCNCCOc2ccc3ncccc3c2)cc1 [Example 2a, (3-Phenoxy-propyl)-[2-quinolin-6-yloxy)-ethyl]-amine hydrochloride]
16 | 9.5 nM | 286 nM | O=c1ccc2ccc(CNCCOc3ccc(Cl)cc3)cc2o1 [Example 4o, 7-{[2-(4-Chloro-phenoxy)-ethylamino]-methyl}-chromen-2-one]
17 | 3.9 nM | 195 nM | Cc1ccc(OCCNCc2ccc3ccc(=O)oc3c2)cc1 [Example 4n, 7-[(2-p-Tolyloxy-ethylamino)-methyl]-chromen-2-one]
18 | 13.5 nM | 4870 nM | O=c1ccc2cc(CNCCOc3ccc(Cl)cc3)ccc2o1 [Example 4l, 6-{[2-(4-Chloro-phenoxy)-ethylamino]-methyl}-chromen-2-one]
19 | 1.6 nM | 249 nM | O=c1ccc2ccc(OCCNCCCOc3ccccc3)cc2o1 [Example 2c, 7-[2-(3-Phenoxy-propylamino)-ethoxy]-chromen-2-one hydrochloride]
20 | 23.8 nM | 5880 nM | Cc1ccc(OCCNCc2ccc3oc(=O)ccc3c2)cc1 [Example 4k, 6-[(2-p-Tolyloxy-ethylamino)-methyl]-chromen-2-one]
21 | 20 nM | 1070 nM | O=c1ccc2cc(CNCCCOc3ccccc3)ccc2o1 [Example 4t, 6-[(3-Phenoxy-propylamino)-methyl]-chromen-2-one]
